Data published in PubChem BioAssay (NCI).
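1) Cells in 96-well plates. 2) Compound, 48 h, 5 concentrations. 3) Linear interpolation between surrounding doses. 4) Unreached endpoint = highest concentration. Abbreviation: GI50, concentration required for 50% inhibition of growth. TGI denotes the concentration required for complete inhibition of growth.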

What was measured:
Test in all cases: growth of human tumour cells (NCI), 48 h; in the data active means GI50 below about 0.43 µM; inactive means the rest
TK-10 renal = test system: TK-10 renal
M14 melanoma = test system: M14 melanoma
HOP-62 NSCLC = test system: HOP-62 NSCLC
A498 renal = test system: A498 renal
SK-OV-3 ovarian = test system: SK-OV-3 ovarian
SNB-19 CNS = test system: SNB-19 CNS
DU-145 prostate = test system: DU-145 prostate
SF-539 CNS = test system: SF-539 CNS
MDA-MB-231 breast = test system: MDA-MB-231 breast
SK-MEL-5 melanoma = test system: SK-MEL-5 melanoma
SW-620 colon = test system: SW-620 colon
UACC-62 melanoma = test system: UACC-62 melanoma
IGROV1 ovarian = test system: IGROV1 ovarian
HT29 colon = test system: HT29 colon
SF-268 CNS = test system: SF-268 CNS
A549 NSCLC = test system: A549 NSCLC
T-47D breast = test system: T-47D breast
SK-MEL-28 melanoma = test system: SK-MEL-28 melanoma
PC-3 prostate = test system: PC-3 prostate
ACHN renal = test system: ACHN renal
SN12C renal = test system: SN12C renal
SR leukemia = test system: SR leukemia
CAKI-1 renal = test system: CAKI-1 renal
OVCAR-8 ovarian = test system: OVCAR-8 ovarian
CCRF-CEM leukemia = test system: CCRF-CEM leukemia
UO-31 renal = test system: UO-31 renal
OVCAR-3 ovarian = test system: OVCAR-3 ovarian
MCF7 breast = test system: MCF7 breast
SF-295 CNS = test system: SF-295 CNS
RXF 393 renal = test system: RXF 393 renal
786-0 renal = test system: 786-0 renal
RPMI-8226 leukemia = test system: RPMI-8226 leukemia
EKVX NSCLC = test system: EKVX NSCLC
LOX IMVI melanoma = test system: LOX IMVI melanoma
NCI-H226 lung = test system: NCI-H226 lung
NCI/ADR-RES ovarian = test system: NCI/ADR-RES ovarian
HOP-92 NSCLC = test system: HOP-92 NSCLC
UACC-257 melanoma = test system: UACC-257 melanoma
NCI-H23 lung = test system: NCI-H23 lung
HCT-116 colon = test system: HCT-116 colon
OVCAR-5 ovarian = test system: OVCAR-5 ovarian
COLO 205 colon = test system: COLO 205 colon
HL-60(TB) leukemia = test system: HL-60(TB) leukemia
HCC-2998 colon = test system: HCC-2998 colon
MDA-MB-435 = test system: MDA-MB-435
KM12 colon = test system: KM12 colon
NCI-H460 lung = test system: NCI-H460 lung
HCT-15 colon = test system: HCT-15 colon
MOLT-4 leukemia = test system: MOLT-4 leukemia
U251 CNS = test system: U251 CNS
K-562 leukemia = test system: K-562 leukemia
NCI-H522 lung = test system: NCI-H522 lung
HS 578T breast = test system: HS 578T breast
MALME-3M melanoma = test system: MALME-3M melanoma

O=C1NC(=S)S/C1=C/c1ccc2c(c1)OCO2
87.7 µM: TGI (HOP-92 NSCLC)
> 100 µM: TGI (TK-10 renal) | TGI (M14 melanoma) | TGI (HOP-62 NSCLC) | TGI (A498 renal) | TGI (SK-OV-3 ovarian) | TGI (SNB-19 CNS) | TGI (DU-145 prostate) | TGI (SF-539 CNS) | TGI (MDA-MB-231 breast) | TGI (SK-MEL-5 melanoma) | TGI (SW-620 colon) | TGI (UACC-62 melanoma) | TGI (IGROV1 ovarian) | TGI (HT29 colon) | TGI (SF-268 CNS) | TGI (A549 NSCLC) | TGI (T-47D breast) | TGI (SK-MEL-28 melanoma) | TGI (PC-3 prostate) | TGI (ACHN renal) | TGI (SN12C renal) | TGI (SR leukemia) | TGI (CAKI-1 renal) | TGI (OVCAR-8 ovarian) | TGI (CCRF-CEM leukemia) | TGI (UO-31 renal) | TGI (OVCAR-3 ovarian) | TGI (MCF7 breast) | TGI (SF-295 CNS) | TGI (RXF 393 renal) | TGI (786-0 renal) | TGI (RPMI-8226 leukemia) | TGI (EKVX NSCLC) | TGI (LOX IMVI melanoma) | TGI (NCI-H226 lung) | TGI (NCI/ADR-RES ovarian) | TGI (UACC-257 melanoma) | TGI (NCI-H23 lung) | TGI (HCT-116 colon) | TGI (OVCAR-5 ovarian) | TGI (COLO 205 colon) | TGI (HL-60(TB) leukemia) | TGI (HCC-2998 colon) | TGI (MDA-MB-435) | TGI (KM12 colon) | TGI (NCI-H460 lung) | TGI (HCT-15 colon) | TGI (MOLT-4 leukemia) | TGI (U251 CNS) | TGI (K-562 leukemia) | TGI (NCI-H522 lung) | TGI (HS 578T breast) | TGI (MALME-3M melanoma)
inactive: GI50 (TK-10 renal) > 100 µM | GI50 (M14 melanoma) > 100 µM | GI50 (HOP-62 NSCLC) > 100 µM | GI50 (A498 renal) 28.7 µM | GI50 (SK-OV-3 ovarian) > 100 µM | GI50 (SNB-19 CNS) > 100 µM | GI50 (DU-145 prostate) > 100 µM | GI50 (SF-539 CNS) > 100 µM | GI50 (MDA-MB-231 breast) > 100 µM | GI50 (SK-MEL-5 melanoma) > 100 µM | GI50 (SW-620 colon) > 100 µM | GI50 (UACC-62 melanoma) > 100 µM | GI50 (IGROV1 ovarian) 27.3 µM | GI50 (HT29 colon) > 100 µM | GI50 (SF-268 CNS) > 100 µM | GI50 (A549 NSCLC) > 100 µM | GI50 (T-47D breast) > 100 µM | GI50 (SK-MEL-28 melanoma) > 100 µM | GI50 (PC-3 prostate) 82.1 µM | GI50 (ACHN renal) > 100 µM | GI50 (SN12C renal) > 100 µM | GI50 (SR leukemia) > 100 µM | GI50 (CAKI-1 renal) > 100 µM | GI50 (OVCAR-8 ovarian) > 100 µM | GI50 (CCRF-CEM leukemia) > 100 µM | GI50 (UO-31 renal) 5.8 µM | GI50 (OVCAR-3 ovarian) 65.1 µM | GI50 (MCF7 breast) > 100 µM | GI50 (SF-295 CNS) 88.3 µM | GI50 (RXF 393 renal) > 100 µM | GI50 (786-0 renal) > 100 µM | GI50 (RPMI-8226 leukemia) > 100 µM | GI50 (EKVX NSCLC) 88.4 µM | GI50 (LOX IMVI melanoma) > 100 µM | GI50 (NCI-H226 lung) > 100 µM | GI50 (NCI/ADR-RES ovarian) > 100 µM | GI50 (HOP-92 NSCLC) 17.6 µM | GI50 (UACC-257 melanoma) > 100 µM | GI50 (NCI-H23 lung) > 100 µM | GI50 (HCT-116 colon) > 100 µM | GI50 (OVCAR-5 ovarian) > 100 µM | GI50 (COLO 205 colon) > 100 µM | GI50 (HL-60(TB) leukemia) 77.3 µM | GI50 (HCC-2998 colon) > 100 µM | GI50 (MDA-MB-435) > 100 µM | GI50 (KM12 colon) > 100 µM | GI50 (NCI-H460 lung) > 100 µM | GI50 (HCT-15 colon) > 100 µM | GI50 (MOLT-4 leukemia) > 100 µM | GI50 (U251 CNS) > 100 µM | GI50 (K-562 leukemia) > 100 µM | GI50 (NCI-H522 lung) > 100 µM | GI50 (HS 578T breast) 36.8 µM | GI50 (MALME-3M melanoma) 23 µM
